Results taken from publication PMC6150173, “Tryptophan-Containing Cyclic Decapeptides with Activity against Plant Pathogenic Bacteria” (Molecules : A Journal of Synthetic Chemistry and Natural …, 2017).
Peptide text beside a SMILES is read from it.

What was measured:
Format in all cases: cell-based
[1] = tested on: Xanthomonas axonopodis pv. vesicatoria 2133-2; conditions: Table S1, MIC range
Experimental: (§1) Erwinia amylovora PMV6076 (Institut National de la Recherche Agronomique, Angers, France), Pseudomonas syringae pv. syringae EPS94 (Institut de Tecnologia Agroalimentària, Universitat de Girona, Spain), and Xanthomonas axonopodis pv. vesicatoria 2133-2 (Instituto Valenciano de Investigaciones Agrarias, Valencia, Spain) were used as bacterial strains. They were stored and cultivated as previously described.
(§2) The minimum inhibitory concentration (MIC) was analyzed as previously described at 0.8, 1.6, 3.1, 6.2, 12.5, 25 and 50 μM [20].

[2] = tested on: Erwinia amylovora PMV6076; assay: Antibacterial activity (MIC), in vitro growth inhibition; conditions: Table S1, MIC range
Experimental: as §1, §2

[3] = tested on: Pseudomonas syringae pv. syringae EPS94; assay: as above; conditions: Table S1, MIC range
Experimental: as §1, §2

[4] = tested on: erythrocyte suspensions of human blood; assay: Hemolytic activity, hemoglobin release; conditions: human blood erythrocytes 5% v/v, absorbance 540 nm, percentage compared to melittin, three replicates; for Hemolysis (%) at 50 µM: peptide 50 μM (table prints 50 µM); for Hemolysis (%) at 125 µM: peptide 125 μM (table prints 125 µM)
Experimental: The hemolytic activity of the compounds was evaluated at 50 and 125 μM by determining hemoglobin release from erythrocyte suspensions of human blood (5% v/v) (Oxoid) using absorbance at 540 nm, as previously described. Three replicates for each peptide concentration were used.

SMILES | MIC Xav [1] [µM] | MIC Ea [2] [µM] | MIC Pss [3] [µM] | Hemolysis (%) at 50 µM [4] [%] | Hemolysis (%) at 125 µM [4]
CC(C)C[C@@H]1NC(=O)[C@H](CCC(N)=O)NC(=O)[C@H](CCCCN)NC(=O)[C@H](CCCCN)NC(=O)[C@H](CC(C)C)NC(=O)[C@H](Cc2c[nH]c3ccccc23)NC(=O)[C@H](CC(C)C)NC(=O)[C@H](CCCCN)NC(=O)[C@H](CCCCN)NC(=O)[C@H](CCCCN)NC1=O [BPC134W, c(LKKKLWLKKQ)] (cyclo(KKKLWLKKQL)) | 3.1 to 6.2 | 25 to 50 | 6.2 to 12.5 | 3 | 4%
CC(C)C[C@@H]1NC(=O)[C@H](CCCCN)NC(=O)[C@H](CC(C)C)NC(=O)[C@H](CCC(N)=O)NC(=O)[C@H](CC(C)C)NC(=O)[C@H](CCCCN)NC(=O)[C@H](CCCCN)NC(=O)[C@H](Cc2c[nH]c3ccccc23)NC(=O)[C@H](CCCCN)NC(=O)[C@H](CCCCN)NC1=O [BPC096W, c(LKLKKWKKLQ)] (cyclo(KKLQLKLKKW)) | 1.6 to 3.1 | 12.5 to 25 | 6.2 to 12.5 | 10 | 15%
CC(C)C[C@@H]1NC(=O)[C@H](CCCCN)NC(=O)[C@H](CCCCN)NC(=O)[C@H](CCCCN)NC(=O)[C@H](CCC(N)=O)NC(=O)[C@H](CC(C)C)NC(=O)[C@H](CC(C)C)NC(=O)[C@H](CCCCN)NC(=O)[C@H](Cc2c[nH]c3ccccc23)NC(=O)[C@H](CCCCN)NC1=O [BPC062W, c(KKKLKWKLLQ)] (cyclo(KKKLKWKLLQ)) | 6.2 to 12.5 | 12.5 to 25 | 3.1 to 6.2 | 3 | 4%
CC(C)C[C@@H]1NC(=O)[C@H](CCCCN)NC(=O)[C@H](CCC(N)=O)NC(=O)[C@H](CCCCN)NC(=O)[C@H](CCCCN)NC(=O)[C@H](CC(C)C)NC(=O)[C@H](Cc2c[nH]c3ccccc23)NC(=O)[C@H](CC(C)C)NC(=O)[C@H](CCCCN)NC(=O)[C@H](CCCCN)NC1=O [BPC132W, c(KLKKLWLKKQ)] (cyclo(KKLWLKKQKL)) | 1.6 to 3.1 | 12.5 to 25 | 3.1 to 6.2 | 5 | 8% and below 20%
CC(C)C[C@@H]1NC(=O)[C@H](CCCCN)NC(=O)[C@H](Cc2c[nH]c3ccccc23)NC(=O)[C@H](CCCCN)NC(=O)[C@H](CCCCN)NC(=O)[C@H](CC(C)C)NC(=O)[C@H](CC(C)C)NC(=O)[C@H](CCCCN)NC(=O)[C@H](CCC(N)=O)NC(=O)[C@H](CCCCN)NC1=O [BPC122W, c(KLLKKWKLKQ)] (cyclo(KKWKLKQKLL)) | 6.2 to 12.5 | 12.5 to 25 | 3.1 to 6.2 | 2 | 6%
CC(C)C[C@@H]1NC(=O)[C@H](CCCCN)NC(=O)[C@H](Cc2c[nH]c3ccccc23)NC(=O)[C@H](CCCCN)NC(=O)[C@H](CCCCN)NC(=O)[C@H](CCCCN)NC(=O)[C@H](CC(C)C)NC(=O)[C@H](CC(C)C)NC(=O)[C@H](CCC(N)=O)NC(=O)[C@H](CCCCN)NC1=O [BPC126W, c(LLKKKWKLKQ)] (cyclo(KKKWKLKQLL)) | 1.6 to 3.1 | 25 to 50 | 6.2 to 12.5 | 5 | 9%
CC(C)C[C@@H]1NC(=O)[C@H](CCC(N)=O)NC(=O)[C@H](CCCCN)NC(=O)[C@H](CC(C)C)NC(=O)[C@H](CCCCN)NC(=O)[C@H](Cc2c[nH]c3ccccc23)NC(=O)[C@H](CC(C)C)NC(=O)[C@H](CCCCN)NC(=O)[C@H](CCCCN)NC(=O)[C@H](CCCCN)NC1=O [BPC116W, c(LKKKLWKLKQ)] (cyclo(KKKLWKLKQL)) | 3.1 to 6.2 | 12.5 to 25 | 3.1 to 6.2 | 9 | 14%
CC(C)C[C@@H]1NC(=O)[C@H](CCCCN)NC(=O)[C@H](CCCCN)NC(=O)[C@H](Cc2c[nH]c3ccccc23)NC(=O)[C@H](CCCCN)NC(=O)[C@H](CC(C)C)NC(=O)[C@H](CCCCN)NC(=O)[C@H](CC(C)C)NC(=O)[C@H](CCCCN)NC(=O)[C@H](CCC(N)=O)NC1=O [BPC090W, c(KLKLKWKKLQ)] (cyclo(KKLQKLKLKW)) | 1.6 to 3.1 | 12.5 to 25 | 6.2 to 12.5 | 9 | 15%
CC(C)C[C@@H]1NC(=O)[C@H](CCCCN)NC(=O)[C@H](CCC(N)=O)NC(=O)[C@H](CCCCN)NC(=O)[C@H](CCCCN)NC(=O)[C@H](CC(C)C)NC(=O)[C@H](Cc2c[nH]c3ccccc23)NC(=O)[C@H](CCCCN)NC(=O)[C@H](CCCCN)NC(=O)[C@H](CC(C)C)NC1=O [BPC142W, c(KLLKKWLKKQ)] (cyclo(KKQKLLKKWL)) | 3.1 to 6.2 | 12.5 to 25 | 6.2 to 12.5 | 16 | 18%
CC(C)C[C@@H]1NC(=O)[C@H](CCCCN)NC(=O)[C@H](CCCCN)NC(=O)[C@H](Cc2c[nH]c3ccccc23)NC(=O)[C@H](CCCCN)NC(=O)[C@H](CC(C)C)NC(=O)[C@H](CC(C)C)NC(=O)[C@H](CCCCN)NC(=O)[C@H](CC(C)C)NC(=O)[C@H](CCC(N)=O)NC1=O [BPC192W, c(LKLLKWKKLQ)] (cyclo(KKLQLKLLKW)) | 6.2 to 12.5 | 25 to 50 | 12.5 to 25 | 13 | 17%
CC(C)C[C@@H]1NC(=O)[C@H](CCC(N)=O)NC(=O)[C@H](CC(C)C)NC(=O)[C@H](CCCCN)NC(=O)[C@H](CC(C)C)NC(=O)[C@H](Cc2c[nH]c3ccccc23)NC(=O)[C@H](CCCCN)NC(=O)[C@H](CCCCN)NC(=O)[C@H](CCCCN)NC(=O)[C@H](CCCCN)NC1=O [BPC078W, c(LKKKKWLKLQ)] (cyclo(KKKKWLKLQL)) | 0.8 to 1.6 | 25 to 50 | 6.2 to 12.5 | 3 | 6%
CC(C)C[C@@H]1NC(=O)[C@H](CCC(N)=O)NC(=O)[C@H](CCCCN)NC(=O)[C@H](CCCCN)NC(=O)[C@H](CC(C)C)NC(=O)[C@H](Cc2c[nH]c3ccccc23)NC(=O)[C@H](CCCCN)NC(=O)[C@H](CCCCN)NC(=O)[C@H](CCCCN)NC(=O)[C@H](CC(C)C)NC1=O [BPC146W, c(LLKKKWLKKQ)] (cyclo(KKKWLKKQLL)) | 3.1 to 6.2 | 25 to 50 | 3.1 to 6.2 | 4 | 7%
CC(C)C[C@@H]1NC(=O)[C@H](CCCCN)NC(=O)[C@H](CCCCN)NC(=O)[C@H](Cc2c[nH]c3ccccc23)NC(=O)[C@H](CC(C)C)NC(=O)[C@H](CCCCN)NC(=O)[C@H](CC(C)C)NC(=O)[C@H](CCCCN)NC(=O)[C@H](CCCCN)NC(=O)[C@H](CCC(N)=O)NC1=O [BPC082W, c(KKLKLWKKLQ)] (cyclo(KKLKLWKKLQ)) | 1.6 to 3.1 | 12.5 to 25 | 6.2 to 12.5 | 26 | 34%
CC(C)C[C@@H]1NC(=O)[C@H](CCCCN)NC(=O)[C@H](CC(C)C)NC(=O)[C@H](CC(C)C)NC(=O)[C@H](CCCCN)NC(=O)[C@H](CCC(N)=O)NC(=O)[C@H](CCCCN)NC(=O)[C@H](CCCCN)NC(=O)[C@H](CCCCN)NC(=O)[C@H](Cc2c[nH]c3ccccc23)NC1=O [BPC154W, c(KLLKLWKKKQ)] (cyclo(KKKQKLLKLW)) | 1.6 to 3.1 | 25 to 50 | 3.1 to 6.2 | 4 | 7%
CC(C)C[C@@H]1NC(=O)[C@H](CCCCN)NC(=O)[C@H](CCC(N)=O)NC(=O)[C@H](CCCCN)NC(=O)[C@H](CC(C)C)NC(=O)[C@H](CC(C)C)NC(=O)[C@H](Cc2c[nH]c3ccccc23)NC(=O)[C@H](CCCCN)NC(=O)[C@H](CCCCN)NC(=O)[C@H](CCCCN)NC1=O [BPC106W, c(KLKKKWLLKQ)] (cyclo(KKKWLLKQKL)) | 3.1 to 6.2 | 25 to 50 | 3.1 to 6.2 | 2 | 2%
CC(C)C[C@@H]1NC(=O)[C@H](CCCCN)NC(=O)[C@H](CCCCN)NC(=O)[C@H](Cc2c[nH]c3ccccc23)NC(=O)[C@H](CC(C)C)NC(=O)[C@H](CCCCN)NC(=O)[C@H](CCCCN)NC(=O)[C@H](CC(C)C)NC(=O)[C@H](CCCCN)NC(=O)[C@H](CCC(N)=O)NC1=O [BPC084W, c(KLKKLWKKLQ)] (cyclo(KKLQKLKKLW)) | 1.6 to 3.1 | 12.5 to 25 | 12.5 to 25 | 54 | 60%
CC(C)C[C@@H]1NC(=O)[C@H](CCCCN)NC(=O)[C@H](CCC(N)=O)NC(=O)[C@H](CC(C)C)NC(=O)[C@H](CC(C)C)NC(=O)[C@H](CCCCN)NC(=O)[C@H](Cc2c[nH]c3ccccc23)NC(=O)[C@H](CCCCN)NC(=O)[C@H](CCCCN)NC(=O)[C@H](CCCCN)NC1=O [BPC066W, c(KLKKKWKLLQ)] (cyclo(KKKWKLLQKL)) | 6.2 to 12.5 | 6.2 to 12.5 | 6.2 to 12.5 | 33 | 41%
